# Assays:
# [1] = system: Nile tilapia (Oreochromis niloticus) exposed to 5 ppm CdCl2.H2O; assay: Cadmium concentration in tissues by atomic absorption spectrophotometer after 21 days exposure; format: in vivo; settings: fish exposed to Cd only (5 ppm), control 205.4804±62.9 ng/g
# Method: (§1) Experimental design was as follows. Adult Nile tilapia, Oreochromis niloticus (n=120 fish), with an average length of 20±4 cm and weight of 150 g-200 g were procured from the local fish farm near Riyadh City. They were checked thoroughly for injury and disease conditions. After washing with 0.01% KMnO4 solution for 15 min, they were divided into five groups each comprising 20 fish and kept in glass tanks (100 L capacity) with non-chlorinated tap water. Prior to the start of the experiment, the fish were acclimated to the food and laboratory conditions with 12 hr dark and 12 hr light cycles, pH range of 6 to 8 and temperature ranging from 20° C. to 24° C. for 15 days. The exposure period was 21 days. Through the entire experimental period the fish were fed commercial pelleted diet at 2% body weight.
# (§2) The experimental groups were in replicates as follows. Group I was the negative control which contained dechlorinated tap water with no added CdCl2.H2O and without any antioxidant treatment (designated “Control” in FIGS. 9-10). […]
# Cadmium concentration in tissues was determined as follows. […] The concentration of Cd in digested tissue samples were analyzed in an atomic absorption spectrophotometer.
# Cadmium accumulation in liver was assessed as follows. […]
# HSP70 = HSP70 levels in gills (ELISA kit) after 21 days exposure; format: in vivo, Oreochromis niloticus; settings: fish exposed to Cd only (5 ppm), control 152.8800±11.81554 pg/g
# Method: as §1, §2
# Biochemical analysis was performed as follows. A quantitation of MDA levels in the liver (lipid peroxides) was done by a high performance liquid chromatographic (HPLC) method. […] The levels of hepatic metalothionein levels (MT-2) and HSP70 in […] were also assessed using commercial ELISA kits.
# Heat shock protein (HSP70) in gills was determined as follows. […]
compound,measurement,setting,value
"O.[Cd+2].[Cl-].[Cl-] [Cd, CdCl2.H2O]",Cd concentration in the liver,[1],1113.3320 ± 48.39 ng/g
same,HSP70 concentration in gills,HSP70,251.6600 ± 19.36 pg/g
